From patent US9840470B2, “Targeting GLI proteins in human cancer by small molecules” (The Regents of the University of California, priority 2013, dated 2017)

Experiments:
melanoma MelJuso = assay: In vivo efficacy, mouse xenograft model (melanoma MelJuso); details: for tumor growth: 50 mg/kg body weight i.p. daily for 14 days, from 13 days after inoculation; for tumor weight (FIG. 1): melanoma MelJuso xenograft, after treatment
Description: (§1) The administered compounds were tested in vivo in the mouse xenograft model bearing human cancer cells. Briefly, female athymic nude mice strain NCRNU-M (5-10 weeks old, 20-25 grams in weight; Taconic, Germantown, N.Y.) was maintained in pathogen-free conditions. Three human cancer cell lines: NSCLC A549, melanoma MelJuso, and mesothelioma MS-1 were used. Five or ten mice were used in each group and injected s.c. with 3×10^6 cancer cells in the dorsal area in a volume of 100 μl. After inoculation, human cancer cells were allowed to grow in mice for 10-13 days to become visible tumor nodules. Animals were then injected with a compound of the embodiments at a dose of 50 mg/kg body weight (1 mg/mouse per day). Vehicle alone was used as control. The compounds and controls were adjusted in 40 ul volume for i.p. injection in the abdomens of the mice. Injections were performed daily around the same time for 14 days. Tumors were allowed to grow for 1-2 additional weeks after completion of the compound treatments. Tumor size was measured every three to four days, and tumor volumes were calculated using width (x) and length (y) (x^2y/2, where x<y). Throughout this period, general toxicity of the treatments was also monitored by measuring body weight of the mice. Data was presented as mean values (±S.D.).
In vivo efficacy study of Compounds 1, 2, 4, and 6 were performed using a Mouse Xenograft Model (Melanoma MelJuso). Mice were injected s.c. with 3×10^6 cells in the dorsal area in a volume of 100 μl. 13 days after inoculation, the mice started receiving treatments with the administered compound at a dose of 50 mg/kg body weight daily for 14 days (n=10). Vehicle alone was used as control (n=10). The administered compounds and vehicle were adjusted in a volume of 40 μl for i.p. injection in the abdomens of the mice. Tumor size and tumor volumes were calculated as described above.

mesothelioma MS-1 = assay: In vivo efficacy, mouse xenograft model (mesothelioma MS-1); details: 50 mg/kg body weight i.p. daily for 14 days, from ten days after inoculation
Description: as §1, with “Tumors were allowed to grow for 1-2 additional weeks after completion of the compound treatments.” left out, “Data was presented as mean values (±S.D.).” left out
In vivo efficacy study of Compounds 1 and 4 were performed using a Mouse Xenograft Model (Mesothelioma MS-1). […] Tumor sizes was measured twice weekly until the completion of the experiments. […]

NSCLC A549 = assay: In vivo efficacy, mouse xenograft model (lung cancer A549); details: 50 mg/kg i.p. daily for 14 days, then 50 mg/kg daily for 1x7 days; tumors weighed 43 days after inoculation
Description: as §1, with “Tumors were allowed to grow for 1-2 additional weeks after completion of the compound treatments.” left out, “Data was presented as mean values (±S.D.).” left out
In vivo efficacy study of Compounds 1 and 4 in Mouse Xenograft Model (NSCLC A549) was examined. […] 43 days after the initial tumor inoculation, tumors were dissected from the mice of each group and their weights were measured using a scale. […]

[1] = test system: Hedgehog signaling pathway; assay: Quantitative RT-PCR of Hh pathway genes in xenograft tumors; format: in vivo, mouse; details: Melanoma tumor (MelJuso), pooled tumor from two mice
Description: (§2) Total RNA was isolated using Qiagen RNeasy Mini Kit (Valencia, Calif.). Hybridization probes and primers (Table 1) were purchased from Applied Biosystems (ABI, Foster City, Calif.). cDNA synthesis and Taqman® PCR were performed according to the manufactures' protocols. The gene expression was assayed in triplicate in ABI 7300 Real-time PCR System. Samples were normalized to their housekeeping gene GAPDH and then calculated by using 2^−dct method.
To examine whether Compounds 1, 2, 4, and 6 suppressed tumor growth through inhibition of the Hedgehog signaling pathway in vivo, expression of the key components and direct target genes of the Hh pathway (e.g. Gli1, Gli2, Gli3, HHIP and Cyclin D1) were analyzed by quantitative real-time RT-PCR using total RNA isolated from the xenograft tumors. GAPDH served as a control. This RT-PCR analysis was performed using a “pooled” tumor from two randomly selected mice of each group with reasonable size tumors. […] The results are shown in FIG. 4, where C is control and V is vehicle.

Wnt signaling pathway = assay: Quantitative RT-PCR of canonical Wnt pathway genes in xenograft tumors; format: in vivo, mouse; details: Melanoma tumor, pooled tumor from two mice, compared to controls
Description: as §2
To examine whether Compounds 1, 2, 4, and 6 suppressed tumor growth through inhibition of the Wnt signaling pathway in vivo, expression of the key components and direct target genes of the Wnt pathway (e.g. Wnt2, Axin2, EGFR, and Cyclin D1) were analyzed by quantitative real-time RT-PCR using total RNA isolated from the xenograft tumors. GAPDH served as a control. This RT-PCR analysis was performed using a “pooled” tumor from two randomly selected mice of each group with reasonable size tumors. […] The results are shown in FIG. 4, where C is control and V is vehicle.

[2] = Preliminary in vivo toxicity: leukocyte population and body weight after treatment; set-up: species or system mouse; details: for changes of leukocyte population: at completion of the in vivo studies; for loss of body weight: during the course of drug administration
Description: as §1
(§3) After the in vivo studies were completed, different organs were resected from mice. These organs included liver, lung, heart, kidney, intestines, ovary, brain, spleen, skin, and muscle. The specimens were fixed in 4% buffered formaldehyde, embedded in paraffin, sectioned, and histologically analyzed by hematoxylin and eosin (HE) staining. The HE stained slides were examined by a mouse pathologist for toxicity evidence from all the organs as compared with vehicle controls. In addition, leukocytes (WBC: white blood cell, NE: neutrophil, LY: lymphocyte, MO: monocyte, EO: eosinophil, BA: basophil) from each animal from all treatment groups were collected and leukocyte population was counted through a blood cell counter.
(§4) As preliminary in vivo toxicity study of Compounds 1, 2, 4, and 6, it was examined if there were changes of leukocyte population and loss of body weight in the mice after the treatment. At the completion of the in vivo studies as described herein, leukocytes (WBC: white blood cell, NE: neutrophil, LY: lymphocyte, MO: monocyte, EO: eosinophil, BA: basophil) from each animal from all treatment groups were collected and leukocyte population was counted through a blood cell counter. Body weights of control groups (n=10) and the treated group (n=10) were measured using a scale during the course of drug administration. […] In an additional toxicity study, effect of different doses of compounds 4 and 6 on the body weight of mice was examined. The compounds were i.p. injected in the abdomens at 3 different doses: 25, 50, and 100 mg/kg body weight to mice (3 mice per dosing group) for 6 consecutive days.

[3] = Histological (H&E) examination of mouse organs for toxicity; format: in vivo; details: i.p. two doses daily for 6 days; liver, spleen, kidney, heart
Source text: as §3
To analyze toxicity of the Compounds 1, 2, 4, and 6 in vivo, each group (three mice) was i.p. injected with two doses of each Compound daily for 6 days, and then major mouse organs, such as liver, spleen, kidney, and heart were resected from the mice.

[4] = Additional toxicity study: body weight at different doses; format: in vivo, mouse; details: i.p. 25, 50, and 100 mg/kg body weight for 6 consecutive days
Description: Each dosing group contained 3 mice. The body weight of mice was measured using a scale. Results are the means±SD (error bars).
as §4

human NSCLC cell lines = assay: Combination treatment with chemotherapies, MTS proliferation assay, lung cancer cells; format: cell-based; details: 72 hours, Combination Index
Source text: (§5) Another assay for determining the number of viable cells in proliferation or cytotoxicity assays is the MTS assay, a colorimetric method. MTS assay reagents are commercially available (Promega Corp., Madison, Wis.). The reagent contains a tetrazolium compound [3-(4,5-dimethylthiazol-2-yl)-5-(3-carboxymethoxyphenyl)-2-(4-sulfophenyl)-2H-tetrazolium, inner salt; MTS] and an electron coupling reagent (phenazine ethosulfate; PES). PES has enhanced chemical stability, which allows it to be combined with MTS to form a stable solution. The MTS tetrazolium compound (Owen's reagent) is bioreduced by cells into a colored formazan product that is soluble in tissue culture medium. This conversion may be accomplished by NADPH or NADH produced by dehydrogenase enzymes in metabolically active cells. The quantity of formazan product as measured by the absorbance at 490 nm is directly proportional to the number of living cells in culture. Because the MTS formazan product is soluble in tissue culture medium, this assay requires fewer steps than procedures that use tetrazolium compounds such as MTT. The formazan product of MTT reduction is a crystalline precipitate that requires an additional step in the procedure to dissolve the crystals before recording absorbance readings at 570 nm.
(§6) Combination treatments of the Compounds with several chemotherapies: erlotinib (Tarceva®), PI3K inhibitor LY294002, TGFβ inhibitor SB431542, and pemetrexed (Alimta®) were performed in human NSCLC and MM cell lines (FIGS. 12-17). In all experiments, NSCLC and MM cell lines were treated with different doses of each compound or combination for 72 hours, and MTS assays were performed to determine the cell proliferations. Combination Index (CI), calculated by CalcuSyn software (Biosoft, Cambridge, UK), was applied to describe the effect of the combination effects of two compounds, where CI<1 indicates Synergism, CI=1 indicates Additive effects, and CI>1 indicates Antagonism. Student's t-tests were applied for statistical analysis.

[5] = test system: human MM cell lines (mesothelioma cells); assay: Combination treatment with chemotherapies, MTS proliferation assay, mesothelioma cells; format: cell-based; details: 72 hours, Combination Index
Source text: as §5, §6

| Compound | tumor growth (melanoma MelJuso) | tumor weight (FIG. 1) (melanoma MelJuso) | tumor weight compared to the control group (mesothelioma MS-1) | tumor weight compared to the control group (NSCLC A549) | Hh signaling (expression of Gli1, Gli2, Gli3, HHIP, Cyclin D1) [1] | expression of the key indicator of the canonical Wnt activation (Wnt signaling pathway) | changes of leukocyte population [2] | loss of body weight [2] | toxicity in organs (H&E histology) [3] | loss of body weight [4] | combination effect with erlotinib (Tarceva) (human NSCLC cell lines) | combination effect with erlotinib (Tarceva) [5] | combination effect with PI3K inhibitor LY294002 (human NSCLC cell lines) | combination effect with TGFβ inhibitor SB431542 (human NSCLC cell lines) | combination effect with PI3K inhibitor LY294002 [5] | combination effect with pemetrexed (Alimta) [5] |
| --- | --- | --- | --- | --- | --- | --- | --- | --- | --- | --- | --- | --- | --- | --- | --- | --- |
| CC(C)(CO)CCCNC(=O)C1C(c2ccccc2)=NN(c2ccccc2)C1c1ccsc1 (stereo not drawn) [Compound 1, 1,3-diphenyl-5-thiophen-3-yl-4,5-dihydro-1H-pyrazole-4-carboxylic acid (5-hydroxy-4,4-dimethyl-pentyl)-amide] | dramatically suppressed | significantly decreased | decreased | decreased | inhibited | significantly down-regulated | No noticeable changes of leukocyte population | No noticeable changes of leukocyte population or loss of the body weight | No noticeable toxicity |  |  |  |  |  |  |  |
| O=C(NCc1ccc(O)cc1)C1C(c2ccccc2)=NN(c2ccccc2)C1c1ccccc1 (stereo not drawn) [Compound 2, 1,3,5-triphenyl-4,5-dihydro-1H-pyrazole-4-carboxylic acid 4-hydroxy-benzylamide] | dramatically suppressed | significantly decreased |  |  | inhibited | significantly down-regulated | No noticeable changes of leukocyte population | No noticeable changes of leukocyte population or loss of the body weight | No noticeable toxicity |  |  |  |  |  |  |  |
| CCCC1C(C(=O)NCCCC(C)(C)CO)C(c2ccc(F)cc2)=NN1c1ccccc1 (stereo not drawn) [Compound 4, 3-(4-fluoro-phenyl)-1-phenyl-5-propyl-4,5-dihydro-1H-pyrazole-4-carboxylic acid (5-hydroxy-4,4-dimethyl-pentyl)-amide] | dramatically suppressed | significantly decreased | decreased | decreased | inhibited | significantly down-regulated | No noticeable changes of leukocyte population | No noticeable changes of leukocyte population or loss of the body weight | No noticeable toxicity | no noticeable loss of the body weight | synergy | synergy |  |  |  |  |
| CC(C)(CO)CCCNC(=O)C1C(c2ccc(F)cc2)=NN(c2ccccc2)C1c1cccc(F)c1 (stereo not drawn) [Compound 6, 3-(4-fluoro-phenyl)-5-(3-fluoro-phenyl)-1-phenyl-4,5-dihydro-1H-pyrazole-4-carboxylic acid (5-hydroxy-4,4-dimethyl-pentyl)-amide] | dramatically suppressed | significantly decreased |  |  | inhibited |  | No noticeable changes of leukocyte population | No noticeable changes of leukocyte population or loss of the body weight | No noticeable toxicity | no noticeable loss of the body weight |  |  | synergy | synergy | synergy | synergy |
